Data reported in patent US11225480B2, “Malic enzyme inhibitors” (SUN PHARMA ADVANCED RESEARCH COMPANY LTD, priority 2019, dated 2022).

Columns and labels:
Format in all cases: biochemical
human ME1 enzyme = target: T1, human ME1 enzyme (Homo sapiens, UniProt P48163); experiment: ME1 inhibition assay (diaphorase/resazurin coupled fluorescence); details: 10 μM compound concentration; read-out: Malic Enzyme 1 % inhibition (10 μM)
T1 sequence (P48163 1-572): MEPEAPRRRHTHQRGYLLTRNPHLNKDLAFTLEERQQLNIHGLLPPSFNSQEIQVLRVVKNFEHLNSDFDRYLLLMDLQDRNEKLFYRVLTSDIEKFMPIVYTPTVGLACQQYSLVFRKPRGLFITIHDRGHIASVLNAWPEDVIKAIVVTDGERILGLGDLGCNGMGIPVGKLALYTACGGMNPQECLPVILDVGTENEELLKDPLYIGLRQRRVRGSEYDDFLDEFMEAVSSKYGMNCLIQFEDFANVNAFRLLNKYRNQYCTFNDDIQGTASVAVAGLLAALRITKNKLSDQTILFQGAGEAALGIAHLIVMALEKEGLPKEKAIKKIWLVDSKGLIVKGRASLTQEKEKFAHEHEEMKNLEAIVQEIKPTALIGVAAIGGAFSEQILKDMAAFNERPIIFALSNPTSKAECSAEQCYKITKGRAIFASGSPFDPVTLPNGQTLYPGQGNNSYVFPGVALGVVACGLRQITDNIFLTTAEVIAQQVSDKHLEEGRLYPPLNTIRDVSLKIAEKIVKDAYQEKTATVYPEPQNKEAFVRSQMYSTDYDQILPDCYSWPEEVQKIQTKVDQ
Experimental: (§1) ME1 catalyzes the oxidative decarboxylation of malate to pyruvate with conversion of the co-factor β-NADP+ to β-NADPH. In the fluorescence assay, a coupled reaction is set up where in an enzyme, Diaphorase, utilizes NADPH generated by ME1, to convert the dye resazurin to a fluorescent molecule resorufin. Resorufin has a characteristic fluorescence with excitation/emission at 540/600 nm (SLAS Discov., 2017 April 1:2472555217706649).
The enzyme activity inhibition assay is set up in a 200 μL final reaction volume in a 96-well plate. As per the experimental design, 2 μL of the compounds at 100× the desired concentration (10 μM) in DMSO were added to the respective wells with 178 μL of assay buffer (50 mM Tris-HCl pH 7.5, 10 mM MnCl2, 2 mM L-malate, 10 μM Resazurin and 0.01 mg/ml Diapharose). The 96-well plate was incubated on a plate shaker at room temperature for 15 minutes protected from light. The well contents were gently mixed by adding 10 μL of 20 nM human ME1 enzyme to the wells and the plate was incubated on a shaker at room temperature for 5 minutes protected from light. Suitable ‘enzyme only’ and ‘no enzyme’ controls were included in the experiment. The enzymatic reaction was started by adding 10 μL of 0.3 mM D-NADP+. The reaction was gently mixed and the plate was initially left on a shaker at room temperature for −7 minutes protected from light. Later, the plate was incubated without shaking at room temperature for 2 hours. At the end of 2 hours, the fluorescence of the wells was measured at excitation 540 nm and emission 600 nm. The % enzyme activity of the compounds is obtained by normalizing the data with enzyme only (100%) and no enzyme controls (0%) using GraphPad Prism software 7.04.

human ME2 enzyme = human ME2 enzyme (Homo sapiens, UniProt P23368); experiment: ME2 inhibition assay (diaphorase/resazurin coupled fluorescence); details: 10 μM compound concentration; read-out: Malic Enzyme 2 % inhibition (10 μM)
human ME2 enzyme, sequence (P23368 19-584): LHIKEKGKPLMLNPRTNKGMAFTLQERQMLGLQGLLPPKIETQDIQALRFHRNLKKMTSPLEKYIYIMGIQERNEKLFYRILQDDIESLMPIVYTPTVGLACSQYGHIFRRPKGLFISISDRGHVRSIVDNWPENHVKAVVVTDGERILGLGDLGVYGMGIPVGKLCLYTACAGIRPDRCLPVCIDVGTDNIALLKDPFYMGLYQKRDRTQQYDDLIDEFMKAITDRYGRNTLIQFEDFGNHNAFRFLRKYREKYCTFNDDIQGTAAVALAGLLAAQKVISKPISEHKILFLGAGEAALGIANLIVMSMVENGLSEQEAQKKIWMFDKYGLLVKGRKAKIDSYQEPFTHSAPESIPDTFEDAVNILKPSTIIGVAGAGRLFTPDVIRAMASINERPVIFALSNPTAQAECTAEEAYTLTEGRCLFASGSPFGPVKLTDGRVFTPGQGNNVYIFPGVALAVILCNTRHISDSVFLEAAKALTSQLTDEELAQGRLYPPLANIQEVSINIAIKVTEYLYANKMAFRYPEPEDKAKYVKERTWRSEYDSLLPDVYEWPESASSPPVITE
Experimental: as §1, with “ME2” for “ME1”, “β-NAD+” for “β-NADP+”, “β-NADH.” for “β-NADPH.”, “NADH” for “NADPH”, “ME2,” for “ME1,”
The enzyme activity inhibition assay is set up in a 200 μL final reaction volume in a 96-well plate. As per the experimental design, 2 μL of the compounds at 100× the desired concentration (10 μM) in DMSO were added to the respective wells with 178 μL of assay buffer (50 mM Tris-HCl pH 7.5, 10 mM MnCl2, 7 mM L-malate, 50 μM Resazurin and 0.025 mg/ml Diapharose). The 96-well plate was incubated on a plate shaker at room temperature for 15 minutes protected from light. The well contents were gently mixed by adding 10 μL of 60 nM human ME2 enzyme to the wells and the plate was incubated on a shaker at room temperature for 5 minutes protected from light. Suitable ‘enzyme only’ and ‘no enzyme’ controls were included in the experiment. The enzymatic reaction was started by adding 10 μL of 2 mM β-NAD+. The reaction was gently mixed and the plate was initially left on a shaker at room temperature for −7 minutes protected from light. Later, the plate was incubated without shaking at room temperature for 2 hours. At the end of 2 hours, the fluorescence of the wells was measured at excitation 540 nm and emission 600 nm. The % enzyme activity of the compounds is obtained by normalizing the data with enzyme only (100%) and no enzyme controls (0%) using GraphPad Prism software 7.04.

human ME3 enzyme = target: T2, human ME3 enzyme (Homo sapiens, UniProt Q16798); experiment: ME3 inhibition assay (diaphorase/resazurin coupled fluorescence); details: 10 μM compound concentration; read-out: Malic Enzyme 3 % inhibition (10 μM)
T2 sequence (Q16798 1-604): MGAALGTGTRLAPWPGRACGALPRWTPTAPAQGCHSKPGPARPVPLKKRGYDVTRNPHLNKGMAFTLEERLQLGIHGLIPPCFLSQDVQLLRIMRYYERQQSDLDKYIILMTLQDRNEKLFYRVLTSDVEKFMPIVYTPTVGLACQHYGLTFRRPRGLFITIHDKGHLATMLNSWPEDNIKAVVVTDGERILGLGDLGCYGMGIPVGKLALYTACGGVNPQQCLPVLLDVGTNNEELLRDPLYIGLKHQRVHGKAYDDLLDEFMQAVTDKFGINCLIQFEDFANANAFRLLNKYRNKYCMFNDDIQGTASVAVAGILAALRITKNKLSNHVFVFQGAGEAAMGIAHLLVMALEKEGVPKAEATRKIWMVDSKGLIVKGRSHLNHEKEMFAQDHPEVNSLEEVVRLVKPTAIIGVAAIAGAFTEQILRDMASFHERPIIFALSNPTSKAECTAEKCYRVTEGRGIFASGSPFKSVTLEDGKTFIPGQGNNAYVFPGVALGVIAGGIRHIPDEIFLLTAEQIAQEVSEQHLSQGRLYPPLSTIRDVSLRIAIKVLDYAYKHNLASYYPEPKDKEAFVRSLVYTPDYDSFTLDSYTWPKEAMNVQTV
Experimental: ME3 catalyzes the oxidative decarboxylation of malate to pyruvate with conversion of the co-factor β-NADP+ to NADPH. In the fluorescence assay, a coupled reaction is set up wherein an enzyme, Diaphorase, utilizes NADPH generated by ME3, to convert the dye resazurin to a fluorescent molecule resorufin.
The enzyme activity inhibition assay is set up in a 200 μL final reaction volume in a 96-well plate. As per the experimental design, 2 μL of the test compounds at 100× the desired concentration (10 μM) in DMSO were added to the respective wells with 178 μL of assay buffer (50 mM Tris-HCl pH 7.5, 10 mM MnCl2, 3 mM L-malate, 50 μM Resazurin and 0.025 mg/ml Diapharose). The 96-well plate was incubated on a plate shaker at room temperature for 15 minutes protected from light. The well contents were gently mixed by adding 10 μL of 20 nM human ME3 enzyme to the wells and the plate was incubated on a shaker at room temperature for 5 minutes protected from light. Suitable enzyme only and no enzyme controls were included in the experiment. The enzyme reaction was started by adding 10 μL of 1 mM D-NADP+. The reaction was gently mixed and the plate was initially left on a shaker at room temperature for ˜7 minutes protected from light. Later, the plate was incubated without shaking at room temperature for 3 hours. At the end of 3 hours, the fluorescence of the wells was measured at excitation 540 nm and emission 600 nm.

Structure (SMILES) | inhibition at 10 µM (human ME1 enzyme) [%] | inhibition at 10 µM (human ME2 enzyme) [%] | inhibition at 10 µM (human ME3 enzyme) [%]
O=C([C@@H]1C[C@H]1c1ccccc1)N1CCN(c2ccc(O)cn2)CC1 (stereo in doubt) [I.133, [4-(5-hydroxypyridin-2-yl)-piperazin-1-yl]-((1R,2R)-2-phenylcyclopropyl)-methanone] | > 90 | > 90 | > 90
O=C(Cc1ccccc1)N1CCN(c2ccc(O)cc2)CC1 [I.1, 1-[4-(4-hydroxyphenyl)piperazin-1-yl]-2-phenylethanone] | > 90 | > 90 | > 90
O=C(c1c[nH]c2ccccc12)N1CCN(c2ccc(O)cc2)CC1 [I.2] | > 90 | > 90 | > 90
COCCOc1ccc(CC(=O)N2CCN(c3ccc(O)cc3)CC2)cc1 [I.5, 1-[4-(4-Hydroxy-phenyl)-piperazin-1-yl]-2-[4-(2-methoxy-ethoxy)-phenyl]-ethanone] | > 90 | > 90 | > 90
O=C(Cc1ccccc1)N1CCN(c2ccc(O)cn2)CC1 [I.6, 1-[4-(5-Hydroxy-pyridin-2-yl)-piperazin-1-yl]-2-phenyl-ethanone] | > 90 | > 90 | > 90
O=C(c1c2ccccc2nc2ccccc12)N1CCN(c2ccc(O)cc2)CC1 [I.9, Acridin-9-yl-[4-(4-hydroxy-phenyl)-piperazin-1-yl]-methanone] | > 90 | > 90 | > 90
O=C(Cc1ccccc1)N1CCN(c2ccc(O)cc2F)CC1 [I.11, 1-[4-(2-Fluoro-4-hydroxy-phenyl)-piperazin-1-yl]-2-phenyl-ethanone] | > 90 | 70 to 89 | > 90
O=C(c1c2ccccc2cc2ccccc12)N1CCN(c2ccc(O)cc2)CC1 [I.21, Anthracen-9-yl-[4-(4-hydroxy-phenyl)-piperazin-1-yl]-methanone] | > 90 | > 90 | > 90
O=C(O)c1cccc(-c2cc(C(=O)N3CCN(c4ccc(O)cc4)CC3)ccn2)c1 [I.39, 3-[4-[4-(4-Hydroxy-phenyl)-piperazine-1-carbonyl]-2-pyridyl]-benzoic acid] | > 90 | > 90 | > 90
O=C(C=C(c1ccccc1)c1ccccc1)N1CCN(c2ccc(O)cc2)CC1 [I.40, 1-[4-(4-hydroxyphenyl)piperazin-1-yl]-3,3-diphenylprop-2-en-1-one] | > 90 | > 90 | > 90
O=C(O)c1cccc(-c2cc(C(=O)N3CCN(c4ccc(O)cc4)CC3)cc(N3CCOCC3)n2)c1 [I.41, 3-[4-[4-(4-Hydroxy-phenyl)-piperazine-1-carbonyl]-6-morpholino-2-pyridyl]-benzoic acid] | > 90 | > 90 | > 90
O=C(O)c1ccc(-c2cc(C(=O)N3CCN(c4ccc(O)cc4)CC3)cc(N3CCOCC3)n2)cc1 [I.42, 4-[4-[4-(4-Hydroxy-phenyl)-piperazine-1-carbonyl]-6-morpholino-2-pyridyl]-benzoic acid] | > 90 | > 90 | > 90
O=C(c1c[nH]c2ccccc12)N1CCN(c2ccc(O)cn2)CC1 [I.43, [4-(5-Hydroxy-pyridin-2-yl)-piperazin-1-yl]-(1H-indol-3-yl)-methanone] | > 90 | 50 to 69 | > 90
O=C(c1c2ccccc2nc2ccccc12)N1CCN(c2ccc(O)cn2)CC1 [I.44, Acridin-9-yl-[4-(5-hydroxy-pyridin-2-yl)-piperazin-1-yl]-methanone] | > 90 | 50 to 69 | > 90
O=C(CCc1ccccc1)N1CCN(c2ccc(O)cn2)CC1 [I.45, 1-[4-(5-hydroxy-pyridin-2-yl)-piperazin-1-yl]-3-phenyl-propan-1-one] | > 90 | 70 to 89 | > 90
O=C(CCc1cccc2ccccc12)N1CCN(c2ccc(O)cc2)CC1 [I.46, 1-[4-(4-Hydroxy-phenyl)-piperazin-1-yl]-3-naphthalen-1-yl-propan-1-one] | > 90 | > 90 | > 90
O=C(c1c[nH]c2ccccc2c1=O)N1CCN(c2ccc(O)cc2)CC1 [I.47, 3-[4-(4-Hydroxy-phenyl)-piperazine-1-carbonyl]-1H-quinolin-4-one] | > 90 | > 90 | > 90
